Counter-ions that a name gives are not always drawn.
system: P388; experiment: In vitro inhibitory activity against cancerous P388 cell line; format: functional, cell-based; conditions: Mus musculus

SMILES | IC50
COCCOCCOC(=O)NCCOCCOCCNC(=O)COCC(=O)OCCN(CCOC(=O)COCC(=O)NCCOCCOCCNC(=O)OCCOCCOC)CC(=O)NC(=O)[C@@]1(O)Cc2c(O)c3c(c(O)c2[C@H](OC2CC(N)C(O)C(C)O2)C1)C(=O)c1c(OC)cccc1C3=O (stereo not given in full) | 455 nM
COCCOCCOC(=O)NCCOCCOCC(=O)OCCN(CCOC(=O)COCCOCCNC(=O)OCCOCCOC)CC(=O)NC(=O)[C@@]1(O)Cc2c(O)c3c(c(O)c2[C@H](OC2CC(N)C(O)C(C)O2)C1)C(=O)c1c(OC)cccc1C3=O (stereo not given in full) | 1100 nM
COc1cccc2c1C(=O)c1c(O)c3c(c(O)c1C2=O)C[C@@](O)(C(=O)CO)C[C@@H]3O[C@H]1C[C@H](N)[C@H](O)[C@H](C)O1 [DOXORUBICIN HYDROCHLORIDE] | 17 nM
COCCOCCOC(=O)NCC(=O)OCCN(CCOC(=O)CNC(=O)OCCOCCOC)CC(=O)NC(=O)[C@@]1(O)Cc2c(O)c3c(c(O)c2[C@H](OC2CC(N)C(O)C(C)O2)C1)C(=O)c1c(OC)cccc1C3=O (stereo not given in full) | 428 nM
COCCOCCOC(=O)NC(C)C(=O)OCCN(CCOC(=O)C(C)NC(=O)OCCOCCOC)CC(=O)NC(=O)[C@@]1(O)Cc2c(O)c3c(c(O)c2[C@H](OC2CC(N)C(O)C(C)O2)C1)C(=O)c1c(OC)cccc1C3=O (stereo not given in full) | 316 nM

Source: ChEMBL document CHEMBL1148288, “A new aliphatic amino prodrug system for the delivery of small molecules and proteins utilizing novel PEG derivatives” (J Med Chem, 2004)
